Measurements reported in patent publication US9193744B2, “Heterocyclic nuclear hormone receptor modulators” (AbbVie Inc., priority 2012, dated 2015).
Where two headings read alike, the source gives them in different places.

Key:
[1] = molecular target: T1, Glucocorticoid Receptor (GR) (Homo sapiens, UniProt P04150); assay: GR Fluorescence Polarization Assay (PolarScreen Glucocorticoid Receptor Competitor Assay, Red); conditions: fluorescence polarization binding ranges
T1 construct: purchased Invitrogen P2893
T1 sequence (P04150 1-777): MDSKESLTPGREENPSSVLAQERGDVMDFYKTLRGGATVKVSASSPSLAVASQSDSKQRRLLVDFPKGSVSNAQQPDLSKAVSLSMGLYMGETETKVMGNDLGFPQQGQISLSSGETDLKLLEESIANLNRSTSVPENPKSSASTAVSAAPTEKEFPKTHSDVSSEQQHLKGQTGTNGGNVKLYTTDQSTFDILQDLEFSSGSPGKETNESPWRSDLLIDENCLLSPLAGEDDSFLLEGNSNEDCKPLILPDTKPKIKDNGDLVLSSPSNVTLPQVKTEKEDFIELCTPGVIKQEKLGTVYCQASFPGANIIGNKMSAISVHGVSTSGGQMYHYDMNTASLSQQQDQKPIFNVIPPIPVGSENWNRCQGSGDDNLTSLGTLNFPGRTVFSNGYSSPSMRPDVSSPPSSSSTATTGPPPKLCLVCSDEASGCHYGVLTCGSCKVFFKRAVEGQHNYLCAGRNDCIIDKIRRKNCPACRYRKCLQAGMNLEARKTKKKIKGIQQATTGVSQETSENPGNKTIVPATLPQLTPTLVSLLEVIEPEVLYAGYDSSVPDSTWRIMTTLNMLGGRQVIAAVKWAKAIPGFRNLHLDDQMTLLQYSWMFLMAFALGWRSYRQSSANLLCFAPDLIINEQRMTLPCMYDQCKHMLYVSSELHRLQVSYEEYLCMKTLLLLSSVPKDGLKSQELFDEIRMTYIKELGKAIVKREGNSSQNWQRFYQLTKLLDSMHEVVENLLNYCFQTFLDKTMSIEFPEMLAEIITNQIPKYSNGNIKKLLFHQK
Procedure: Fluorescence polarization assays were carried out using the PolarScreen™ Glucocorticoid Receptor Competitor Assay, Red from Invitrogen (P2893). The assay buffer was prepared according to the manufacturer's protocol and used to dilute the fluorescent glucocorticoid and GR. Compounds were prepared and serial diluted 1:4 in DMSO. Compound, fluorescent glucocorticoid and GR were added in a final volume of 20 μL and incubated overnight at 4° C. Fluorescent polarization was measured on the PerkinElmer Envision®. Fluorescence polarization binding ranges measured using GR Fluorescence Polarization Assay: […]

[2] = tested on: IL-6; assay: A549 Cell Assay to Measure Inflammation Markers (inhibition of IL-1β-induced IL-6); format: cell-based; conditions: A549 cells, read-out: A549 cell assay
Procedure: A549 Cell Assay to Measure Inflammation Markers
A549 cells were seeded (3E4 cells/well) in 96-well assay plates in culture medium (100 μL/well., F-12 K base media, supplemented with 10% FBS and 100 μ/mL-100 μg/mL Pen-Strep.) After overnight culture in an incubator set to 37° C., 4.9% CO2, and 90% humidity, media was removed from adherent cells by aspiration and replaced with 100 μL/well Assay Medium (F-12 K base media supplemented with 5% charcoal stripped calf sera and 100 U/mL-100 μg/mL Pen-Strep.) Compounds were prepared in DMSO and serial diluted (1:3, 1:4, or 1:5) with DMSO in Dilution Plate(s) to give 10 dilution points for each compound tested. Further dilution (1:250) of compound was made into assay medium and 50 μL/well diluted drug or DMSO/media control was applied to cells. After a 1 h pre-incubation in a temperature, CO2, and humidity controlled incubator, set to 37° C., 50 μL/well of 4 ng/mL IL-1β diluted in assay media, was applied to cultures. Assay plates, with a final volume of 200 μL/well and final concentrations of 0.1% DMSO and 1 ng/mL IL-1β were returned to incubator for a four h incubation period. Next, plates were spun at 183 g (1000 rpm in Beckman/Coulter Allegra 6KR centrifuge) for 10 min. Cell-free supernatant (150 μL/well) was collected and IL-6 was measured by MSD kit, following protocol of manufacturer, and using MSD SECTOR Imager 6000 instrument. Potency of compounds to inhibit IL-6 was determined using the percent reduction of measured IL-6 in wells with compound compared to control wells without drug, and relative to (100% inhibition) positive control compound of 1 μM prednisolone. Results were represented as IC50 and Emax values. To verify that viable cell numbers were similar across plate(s), and not confounding compound IC50 data interpretation, the remaining 50 μL/well of cells and media (after removal of supernatant) were used to run Cell Titer-Glo Assay per directions of manufacturer.

IC50 [1]	IC50 ([2]; Homo sapiens)	IC50 [2]	Compound
100 to 1000 nM	> 10000 nM		CC[C@]12CC[C@@](O)(C(F)(F)F)C[C@@H]1CCCc1nc3c(cnn3-c3ccc(F)cc3)cc12 (single isomer, unassigned) [Example 153]
< 100 nM	< 100 nM		CC[C@@]12CC[C@](O)(C(F)(F)F)C[C@H]1CCCc1nc3c(cnn3-c3ccc(F)cc3)cc12 (single isomer, unassigned) [Example 154]
100 to 1000 nM		< 100 nM	C[C@]1(O)CC[C@]2(Cc3ccccn3)c3cc4cnn(-c5ccncc5)c4cc3CCC[C@@H]2C1 [Example 31]
< 100 nM		< 100 nM	CCOC[C@@]1(O)CC[C@@]2(Cc3ccccn3)c3cc4cnn(-c5ccc(F)cc5)c4cc3CCC[C@H]2C1 [Example 32]
< 100 nM		< 100 nM	CCOC[C@]1(O)CC[C@]2(Cc3ccccn3)c3cc4cnn(-c5ccc(F)cc5)c4cc3CCC[C@@H]2C1 [Example 33]
< 100 nM		> 10000 nM	CC[C@]12CC[C@@](O)(COC)C[C@H]1CCCc1cc3c(cnn3-c3ccc(F)cc3)cc12 [Example 34]
< 100 nM		< 100 nM	CC[C@@]12CC[C@](O)(COC)C[C@@H]1CCCc1cc3c(cnn3-c3ccc(F)cc3)cc12 [Example 35]
< 100 nM		> 10000 nM	COC[C@]1(O)CC[C@]2(Cc3ncccn3)c3cc4cnn(-c5ccc(F)cc5)c4cc3CCC[C@@H]2C1 [Example 36]
< 100 nM		< 100 nM	CC[C@@]12CC[C@](O)(COC)C[C@H]1CCCc1cc3c(cnn3-c3ccc(F)cc3)cc12 [Example 37]
< 100 nM		< 100 nM	COC[C@]1(O)CC[C@]2(CC3CC3)c3cc4cnn(-c5ccc(F)cc5)c4cc3CCC[C@@H]2C1 [Example 39]
< 100 nM		< 100 nM	COC[C@@]1(O)CC[C@@]2(CC3CC3)c3cc4cnn(-c5ccc(F)cc5)c4cc3CCC[C@H]2C1 [Example 40]
< 100 nM		< 100 nM	COC[C@@]1(O)CC[C@@]2(Cc3ncccn3)c3cc4cnn(-c5ccc(F)cc5)c4cc3CCC[C@H]2C1 [Example 41]
< 100 nM		> 10000 nM	CC[C@]12CC[C@@](O)(COC)C[C@H]1CCCc1cc3c(cnn3-c3cccnc3)cc12 [Example 43]
< 100 nM		< 100 nM	CC[C@@]12CC[C@](O)(COC)C[C@@H]1CCCc1cc3c(cnn3-c3cccnc3)cc12 [Example 44]
100 to 1000 nM		> 10000 nM	CC[C@]12CC[C@@](O)(COC)C[C@H]1CCCc1cc3c(cnn3-c3ccccn3)cc12 [Example 46]
< 100 nM		< 100 nM	CC[C@@]12CC[C@](O)(COC)C[C@@H]1CCCc1cc3c(cnn3-c3ccccn3)cc12 [Example 47]
100 to 1000 nM		< 100 nM	COC[C@]1(O)CC[C@]2(Cc3ccccn3)c3cc4cnn(-c5ccncc5)c4cc3CCC[C@@H]2C1 [Example 48]
< 100 nM		< 100 nM	COC[C@@]1(O)CC[C@@]2(Cc3ccccn3)c3cc4cnn(-c5ccncc5)c4cc3CCC[C@H]2C1 [Example 49]

IC50 [1]	IC50 ([2]; Homo sapiens)	IC50 [2]	Compound
< 100 nM		< 100 nM	CC[C@]12CC[C@](C)(O)C[C@H]1CCCc1cc3c(cnn3-c3ccc(F)cc3)cc12 [Example 53]
< 100 nM		< 100 nM	CC[C@@]12CC[C@@](C)(O)C[C@@H]1CCCc1cc3c(cnn3-c3ccc(F)cc3)cc12 [Example 54]
< 100 nM		< 100 nM	C[C@@]1(O)CC[C@@]2(Cc3ncccn3)c3cc4cnn(-c5ccc(F)cc5)c4cc3CCC[C@H]2C1 [Example 55]
100 to 1000 nM		> 10000 nM	C[C@]1(O)CC[C@]2(Cc3ncccn3)c3cc4cnn(-c5ccc(F)cc5)c4cc3CCC[C@@H]2C1 [Example 56]
< 100 nM		< 100 nM	C[C@]1(O)CC[C@]2(CC3CC3)c3cc4cnn(-c5ccc(F)cc5)c4cc3CCC[C@@H]2C1 [Example 58]
< 100 nM		< 100 nM	Cc1cc(-n2ncc3cc4c(cc32)CCC[C@H]2C[C@](C)(O)CC[C@@]42Cc2ccccn2)ccn1 [Example 60]
< 100 nM		< 100 nM	N#CC[C@@]1(O)CC[C@@]2(Cc3ncccn3)c3cc4cnn(-c5ccc(F)cc5)c4cc3CCC[C@H]2C1 [Example 62]
< 100 nM		< 100 nM	N#CC[C@]1(O)CC[C@]2(Cc3ncccn3)c3cc4cnn(-c5ccc(F)cc5)c4cc3CCC[C@@H]2C1 [Example 63]
< 100 nM		< 100 nM	CC[C@]12CC[C@@](O)(CC#N)C[C@H]1CCCc1cc3c(cnn3-c3ccc(F)cc3)cc12 [Example 64]
< 100 nM		< 100 nM	CC[C@@]12CC[C@](O)(CC#N)C[C@@H]1CCCc1cc3c(cnn3-c3ccc(F)cc3)cc12 [Example 65]
< 100 nM		< 100 nM	N#CC[C@]1(O)CC[C@]2(CC3CC3)c3cc4cnn(-c5ccc(F)cc5)c4cc3CCC[C@@H]2C1 [Example 66]
< 100 nM		< 100 nM	N#CC[C@@]1(O)CC[C@@]2(CC3CC3)c3cc4cnn(-c5ccc(F)cc5)c4cc3CCC[C@H]2C1 [Example 67]
< 100 nM		< 100 nM	N#CC[C@@]1(O)CC[C@@]2(Cc3ccccn3)c3cc4cnn(-c5ccncc5)c4cc3CCC[C@H]2C1 [Example 68]
< 100 nM		< 100 nM	N#CC[C@]1(O)CC[C@]2(Cc3ccccn3)c3cc4cnn(-c5ccncc5)c4cc3CCC[C@@H]2C1 [Example 69]
< 100 nM	< 100 nM		CS(=O)(=O)NC[C@@]12CC[C@](O)(C(F)(F)F)C[C@H]1CCCc1cc3c(cnn3-c3ccc(F)cc3)cc12 [Example 74, N-(((3R,4aR,12bS)-9-(4-fluorophenyl)-3-hydroxy-3-(trifluoromethyl)-1,2,3,4,4a,5,6,7,9,12b-decahydrobenzo[6,7]cyclohepta[1,2-f]indazol-12b-yl)methyl)methanesulfonamide]
< 100 nM	< 100 nM		O=S1(=O)CCCN1C[C@@]12CC[C@](O)(C(F)(F)F)C[C@H]1CCCc1cc3c(cnn3-c3ccc(F)cc3)cc12 [Example 75, 2-(((3R,4aR,12bS)-9-(4-fluorophenyl)-3-hydroxy-3-(trifluoromethyl)-1,2,3,4,4a,5,6,7,9,12b-decahydrobenzo[6,7]cyclohepta[1,2-f]indazol-12b-yl)methyl)isothiazolidine 1,1-dioxide]
< 100 nM	< 100 nM		OC[C@@]12CC[C@](O)(C(F)(F)F)C[C@H]1CCCc1cc3c(cnn3-c3ccc(F)cc3)cc12 [Example 78, (3R,4aR,12bS)-9-(4-fluorophenyl)-12b-(hydroxymethyl)-3-(trifluoromethyl)-1,2,3,4,4a,5,6,7,9,12b-decahydrobenzo[6,7]cyclohepta[1,2-f]indazol-3-ol]
< 100 nM		100 to 1000 nM	OC[C@]12CC[C@@](O)(C(F)(F)F)C[C@@H]1CCCc1cc3c(cnn3-c3ccc(F)cc3)cc12 [Example 79]

Compound	IC50 [1]	IC50 ([2]; Homo sapiens)	IC50 [2]
C[C@@]1(O)CC[C@@]2(CC3CC3)c3cc4cnn(-c5ccc(F)cc5)c4cc3CCC[C@H]2C1 [Example 57]	< 100 nM		< 100 nM
